Data reported in ChEMBL document CHEMBL1649168, “Susceptibility of human immunodeficiency virus type 1 to the maturation inhibitor bevirimat is modulated by baseline polymorphisms in Gag spacer peptide 1” (Antimicrob Agents Chemother, 2009).

What was measured:
[1] = test system: Human immunodeficiency virus 1; assay: Antiviral activity against HIV1 HXB2 harboring SP1 T8N mutant gene relative to wild type; assay type: functional
[2] = test system: Human immunodeficiency virus 1; assay: Antiviral activity against HIV1 NL4.3 harboring SP1 T8A mutant gene relative to wild type; assay type: functional
[3] = test system: Human immunodeficiency virus 1; assay: Antiviral activity against HIV1 HXB2 harboring SP1 T8delta mutant gene relative to wild type; assay type: functional
[4] = test system: Human immunodeficiency virus 1; assay: Antiviral activity against HIV1 NL4.3 harboring SP1 T8delta mutant gene relative to wild type; assay type: functional
[5] = test system: Human immunodeficiency virus 1; assay: Antiviral activity against HIV1 NL4.3 harboring SP1 V7M mutant gene relative to wild type; assay type: functional
[6] = test system: Human immunodeficiency virus 1; assay: Antiviral activity against HIV1 HXB2 harboring SP1 V7M mutant gene relative to wild type; assay type: functional
[7] = test system: Human immunodeficiency virus 1; assay: Antiviral activity against HIV1 HXB2 harboring SP1 V7A mutant gene relative to wild type; assay type: functional
[8] = test system: Human immunodeficiency virus 1; assay: Antiviral activity against HIV1 NL4.3 harboring SP1 V7A mutant gene relative to wild type; assay type: functional
[9] = test system: Human immunodeficiency virus 1; assay: Antiviral activity against HIV1 NL4.3 harboring SP1 V7delta mutant gene relative to wild type; assay type: functional
[10] = test system: Human immunodeficiency virus 1; assay: Antiviral activity against HIV1 HXB2 harboring SP1 Q6H mutant gene relative to wild type; assay type: functional
[11] = test system: Human immunodeficiency virus 1; assay: Antiviral activity against HIV1 NL4.3 harboring SP1 Q6A mutant gene relative to wild type; assay type: functional
[12] = test system: Human immunodeficiency virus 1; assay: Antiviral activity against HIV1 NL4.3 harboring SP1 Q6H mutant gene relative to wild type; assay type: functional
[13] = test system: Human immunodeficiency virus 1; assay: Antiviral activity against HIV1 NL4.3 harboring SP1 A1V mutant gene relative to wild type; assay type: functional
[14] = test system: Human immunodeficiency virus 1; assay: Antiviral activity against HIV1 NL4.3 harboring SP1 L231M mutant gene relative to wild type; assay type: functional
[15] = test system: Human immunodeficiency virus 1; assay: Antiviral activity against HIV1 NL4.3 harboring SP1 mutant gene relative to wild type; assay type: functional
[16] = test system: Human immunodeficiency virus 1; assay: Antiviral activity against HIV1 PA100 harboring SP1 mutant gene relative to wild type; assay type: functional
[17] = test system: Human immunodeficiency virus 1; assay: Antiviral activity against HIV1 PA109 harboring SP1 mutant gene relative to wild type; assay type: functional
[18] = test system: Human immunodeficiency virus 1; assay: Antiviral activity against HIV1 PA105 harboring SP1 mutant gene relative to wild type; assay type: functional
[19] = test system: Human immunodeficiency virus 1; assay: Antiviral activity against HIV1 PA106 harboring SP1 mutant gene relative to wild type; assay type: functional
[20] = test system: Human immunodeficiency virus 1; assay: Antiviral activity against HIV1 PA111 harboring SP1 mutant gene relative to wild type; assay type: functional
[21] = test system: Human immunodeficiency virus 1; assay: Antiviral activity against HIV1 PA108 harboring SP1 mutant gene relative to wild type; assay type: functional
[22] = test system: Human immunodeficiency virus 1; assay: Antiviral activity against HIV1 PA119 harboring SP1 mutant gene relative to wild type; assay type: functional
[23] = test system: Human immunodeficiency virus 1; assay: Antiviral activity against HIV1 PA118 harboring SP1 mutant gene relative to wild type; assay type: functional
[24] = test system: Human immunodeficiency virus 1; assay: Antiviral activity against HIV1 PA114 harboring SP1 mutant gene relative to wild type; assay type: functional
[25] = test system: Human immunodeficiency virus 1; assay: Antiviral activity against HIV1 PA103 harboring SP1 mutant gene relative to wild type; assay type: functional
[26] = test system: Human immunodeficiency virus 1; assay: Antiviral activity against HIV1 PA101 harboring SP1 mutant gene relative to wild type; assay type: functional
[27] = test system: Human immunodeficiency virus 1; assay: Antiviral activity against HIV1 PA107 harboring SP1 mutant gene relative to wild type; assay type: functional
[28] = test system: Human immunodeficiency virus 1; assay: Antiviral activity against HIV1 PA102 harboring SP1 mutant gene relative to wild type; assay type: functional
[29] = test system: Human immunodeficiency virus 1; assay: Antiviral activity against HIV1 PA104 harboring SP1 mutant gene relative to wild type; assay type: functional
[30] = test system: Human immunodeficiency virus 1; assay: Antiviral activity against HIV1 PA116 harboring SP1 mutant gene relative to wild type; assay type: functional
[31] = test system: Human immunodeficiency virus 1; assay: Antiviral activity against HIV1 PA113 harboring SP1 mutant gene relative to wild type; assay type: functional
[32] = test system: Human immunodeficiency virus 1; assay: Antiviral activity against HIV1 PA117 harboring SP1 mutant gene relative to wild type; assay type: functional
[33] = test system: Human immunodeficiency virus 1; assay: Antiviral activity against HIV1 PA112 harboring SP1 mutant gene relative to wild type; assay type: functional
[34] = test system: Human immunodeficiency virus 1; assay: Antiviral activity against HIV1 PA115 harboring SP1 mutant gene relative to wild type; assay type: functional
[35] = test system: Human immunodeficiency virus 1; assay: Antiviral activity against HIV1 PA110 harboring SP1 mutant gene relative to wild type; assay type: functional
[36] = test system: Human immunodeficiency virus 1; assay: Antiviral activity against HIV1 HXB2 harboring SP1 mutant gene relative to wild type; assay type: functional
[37] = test system: Human immunodeficiency virus 1; assay: Antiviral activity against HIV1 clinical isolates; assay type: functional, organism-based
[38] = test system: Human immunodeficiency virus 1; assay: Antiviral activity against HIV1 HXB2 harboring SP1 Q6H/V7A mutant gene relative to wild type; assay type: functional
[39] = test system: Human immunodeficiency virus 1; assay: Antiviral activity against HIV1 HXB2 harboring SP1 Q6H/T8delta mutant gene relative to wild type; assay type: functional
[40] = test system: Human immunodeficiency virus 1; assay: Antiviral activity against HIV1 HXB2 harboring SP1 Q6H/T8N mutant gene relative to wild type; assay type: functional
[41] = test system: Human immunodeficiency virus 1; assay: Antiviral activity against HIV1 HXB2 harboring SP1 V7A/T8delta mutant gene relative to wild type; assay type: functional
[42] = test system: Human immunodeficiency virus 1; assay: Antiviral activity against HIV1 HXB2 harboring SP1 V7A/T8N mutant gene relative to wild type; assay type: functional
[43] = test system: Human immunodeficiency virus 1; assay: Antiviral activity against HIV1 HXB2 harboring SP1 Q6H /V7A/T8delta mutant gene relative to wild type; assay type: functional
[44] = test system: Human immunodeficiency virus 1; assay: Antiviral activity against HIV1 HXB2 harboring SP1 Q6H /V7A/T8N mutant gene relative to wild type; assay type: functional

Compound: C=C(C)[C@@H]1CC[C@]2(C(=O)O)CC[C@]3(C)[C@H](CC[C@@H]4[C@@]5(C)CC[C@H](OC(=O)CC(C)(C)C(=O)O)C(C)(C)[C@@H]5CC[C@]43C)[C@@H]12 [BEVIRIMAT]
- fold change (FC) [1]: 52
- fold change (FC) [2]: 1.2
- fold change (FC) [3]: 52.2
- fold change (FC) [4]: 10.9
- fold change (FC) [5]: 25.3
- fold change (FC) [6]: >113
- fold change (FC) [7]: >151.4
- fold change (FC) [8]: 45.8
- fold change (FC) [9]: 65.5
- fold change (FC) [10]: 2.3
- fold change (FC) [11]: 0.9
- fold change (FC) [12]: 1.9
- fold change (FC) [13]: >77.5
- fold change (FC) [14]: 37.6
- fold change (FC) [15]: 1.1
- fold change (FC) [16]: >125.4
- fold change (FC) [17]: >125.4
- fold change (FC) [18]: >125.4
- fold change (FC) [19]: >119.5
- fold change (FC) [20]: >119.5
- fold change (FC) [21]: >116.6
- fold change (FC) [22]: >106.4
- fold change (FC) [23]: >113.7
- fold change (FC) [24]: >106.1
- fold change (FC) [25]: >83.2
- fold change (FC) [26]: >76.1
- fold change (FC) [27]: 9.8
- fold change (FC) [28]: 5.6
- fold change (FC) [29]: 9.3
- fold change (FC) [30]: 4.5
- fold change (FC) [31]: 2.3
- fold change (FC) [32]: 1.9
- fold change (FC) [33]: 1.9
- fold change (FC) [34]: 0.9
- fold change (FC) [35]: 1.5
- fold change (FC) [36]: 1.7
- IC50 [37]: 10 nM
- fold change (FC) [38]: >115.1
- fold change (FC) [39]: >111
- fold change (FC) [40]: >122.5
- fold change (FC) [41]: >130.6
- fold change (FC) [42]: >157.2
- fold change (FC) [43]: >144.3
- fold change (FC) [44]: >132.3
